A word on the EC50: it is the concentration giving half of the maximal effect.

The target in this test is T1, F508delCFTR (Homo sapiens, UniProt P13569, DEL508-508).
T1 construct: expressed in transfected cells; host or cells: CFBE41o- human lung-derived epithelial cells (CFBE4lo-F508delCFTR-HRP), doxycycline-inducible
Put plainly: Cell Surface Expression-Horse Radish Peroxidase (CSE-HRP) Assay.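 On Maximum % activity (with co-corrector): co-corrector and positive control are both the same reference corrector at 2 µM.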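 On Maximum % activity (without co-corrector): percent of the 2 µM on-plate positive control corrector response above DMSO.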 The class given is cell-based. The conditions noted are these: for Maximum % activity (with co-corrector): with co-corrector (2 μM); for Maximum % activity (with co-corrector) / Emax: maximum at any tested concentration, normalized to on-plate positive control; for Emax: without co-corrector, read-out: Maximum % activity (without co-corrector).

Setting [1] is: test compound without co-corrector, read-out: EC50 (without co-corrector).
The mark [2] stands for this setting: with co-corrector (2 μM of 3-[(2R,4R)-4-({[1-(2,2-difluoro-1,3-benzodioxol-5-yl)cyclopropyl]carbonyl}amino)-7-methoxy-3,4-dihydro-2H-chromen-2-yl]benzoic acid), read-out: EC50 (with co-corrector).

Where two headings read alike, the source gives them in different places.

T1 sequence (P13569 with tags, fused parts or gaps DEL508-508): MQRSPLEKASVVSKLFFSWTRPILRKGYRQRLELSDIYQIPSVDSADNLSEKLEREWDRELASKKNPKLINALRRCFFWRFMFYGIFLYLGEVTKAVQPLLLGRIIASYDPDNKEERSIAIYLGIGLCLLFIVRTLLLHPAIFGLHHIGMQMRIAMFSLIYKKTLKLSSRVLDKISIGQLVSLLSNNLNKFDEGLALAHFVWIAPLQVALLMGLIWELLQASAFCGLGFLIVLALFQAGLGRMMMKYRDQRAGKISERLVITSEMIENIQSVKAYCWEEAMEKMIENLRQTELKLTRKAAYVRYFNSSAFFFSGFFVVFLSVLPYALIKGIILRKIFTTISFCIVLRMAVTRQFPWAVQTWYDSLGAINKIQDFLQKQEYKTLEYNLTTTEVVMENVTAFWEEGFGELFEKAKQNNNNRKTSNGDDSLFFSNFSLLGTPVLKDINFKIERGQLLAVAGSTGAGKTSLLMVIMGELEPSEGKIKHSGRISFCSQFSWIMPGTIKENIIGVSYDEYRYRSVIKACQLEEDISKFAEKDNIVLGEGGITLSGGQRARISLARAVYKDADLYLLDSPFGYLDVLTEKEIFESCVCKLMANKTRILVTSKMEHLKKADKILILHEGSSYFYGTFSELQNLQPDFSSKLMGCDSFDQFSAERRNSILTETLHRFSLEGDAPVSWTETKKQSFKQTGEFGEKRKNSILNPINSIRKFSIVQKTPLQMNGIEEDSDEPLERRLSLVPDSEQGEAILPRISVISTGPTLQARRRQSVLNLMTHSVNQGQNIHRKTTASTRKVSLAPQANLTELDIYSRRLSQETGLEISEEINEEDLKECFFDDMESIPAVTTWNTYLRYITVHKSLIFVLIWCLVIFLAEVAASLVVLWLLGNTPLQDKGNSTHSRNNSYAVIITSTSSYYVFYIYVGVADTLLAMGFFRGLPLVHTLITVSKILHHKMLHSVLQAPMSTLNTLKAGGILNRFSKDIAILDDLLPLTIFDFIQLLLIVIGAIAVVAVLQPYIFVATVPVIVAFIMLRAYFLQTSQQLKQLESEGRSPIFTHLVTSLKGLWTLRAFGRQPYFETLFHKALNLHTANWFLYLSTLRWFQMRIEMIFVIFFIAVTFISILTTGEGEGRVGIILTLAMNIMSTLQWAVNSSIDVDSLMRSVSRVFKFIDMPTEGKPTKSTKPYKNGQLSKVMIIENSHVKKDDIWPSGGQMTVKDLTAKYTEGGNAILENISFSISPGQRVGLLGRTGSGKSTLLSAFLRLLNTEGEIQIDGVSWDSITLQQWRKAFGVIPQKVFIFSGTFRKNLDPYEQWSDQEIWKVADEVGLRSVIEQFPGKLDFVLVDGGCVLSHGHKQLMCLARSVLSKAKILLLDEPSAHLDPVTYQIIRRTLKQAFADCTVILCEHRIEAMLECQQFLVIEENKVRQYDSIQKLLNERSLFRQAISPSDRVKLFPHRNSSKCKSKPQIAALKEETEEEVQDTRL

Take `CC(C)(C)[C@H]1[C@H](NCc2ccc3c(c2)OCCO3)[C@H](c2ccccc2)N(C(=O)C2CCCCC2)[C@@H]1C(=O)O` [Example I-47]: the “Maximum % activity (with co-corrector)” value is “++ (≥150 and <350)”; the Emax is under 100%. The concentration for a half-maximal effect (EC50) under setting [1] is over 10000 nM. Also, under setting [2], the EC50 fell in the range of 1000 to 10000 nM.

Regarding `COc1ccc(-c2ccccc2)cc1CN[C@H]1[C@H](C(C)(C)C)[C@@H](C(=O)O)N(C(=O)C2CCCCC2)[C@H]1c1ccccc1` [Example I-48], the “Maximum % activity (with co-corrector)” value is reported as “+++ (≥350)” and the Emax is over 200%. Under setting [1], the EC50 was under 1000 nM. Further, under setting [2], the EC50 was under 1000 nM.

For the compound `COc1cc2c(cc1CN[C@H]1[C@H](C(C)(C)C)[C@@H](C(=O)O)N(C(=O)C3CCCCC3)[C@H]1c1ccccc1)CCC2` [Example I-49], the “Maximum % activity (with co-corrector)” value is given as “+++ (≥350)” and the Emax was over 200%. Moreover, under setting [1], the EC50 was in the range of 1000 to 10000 nM. Further, the EC50 under setting [2] is under 1000 nM.

Turning to `CC(C)(C)[C@H]1[C@H](NCc2ccc(F)cc2OCC2CC2)[C@H](c2ccccc2)N(C(=O)C2CCCCC2)[C@@H]1C(=O)O` [Example I-50], the “Maximum % activity (with co-corrector)” value is “++ (≥150 and <350)”; the Emax was under 100%. The EC50 under setting [1] is 1000 to 10000 nM. Under setting [2], the EC50 was 1000 to 10000 nM.

In the case of `CC(C)(C)[C@H]1[C@H](NCc2cc(Cl)ccc2O)[C@H](c2ccccc2)N(C(=O)C2CCCCC2)[C@@H]1C(=O)O` [Example I-51], the “Maximum % activity (with co-corrector)” value was “++ (≥150 and <350)”; the Emax is under 100%. Under setting [1], the EC50 is over 10000 nM. Moreover, the EC50 under setting [2] lay within 1000 to 10000 nM.

With `COc1ccc(C(C)(C)C)cc1CN[C@H]1[C@H](C(C)(C)C)[C@@H](C(=O)O)N(C(=O)C2CCCCC2)[C@H]1c1cccnc1N(C)C` [Example I-52], the “Maximum % activity (with co-corrector)” value is reported as “+++ (≥350)” and the Emax is over 200%. For the same compound, the EC50 under setting [1] was under 1000 nM. Also, the EC50 under setting [2] is under 1000 nM.

In the case of `COc1ccc(C(F)(F)F)cc1CN[C@H]1[C@H](C(C)(C)C)[C@@H](C(=O)O)N(C(=O)C2CCCCC2)[C@H]1c1cccnc1N(C)C` [Example I-53], the “Maximum % activity (with co-corrector)” value is reported as “+++ (≥350)” and the Emax was in the range of 100 to 200%. Also, the EC50 under setting [1] was 1000 to 10000 nM. For the same compound, the EC50 under setting [2] lay in the range of 1000 to 10000 nM.

Take `CC(C)c1cc(C(F)(F)F)cc(N[C@H]2[C@H](C(C)(C)C)[C@@H](C(=O)O)N(C(=O)C3CCCCC3)[C@H]2c2ccccc2)n1` [Example I-54]: the “Maximum % activity (with co-corrector)” value is “++ (≥150 and <350)”; the Emax was under 100%. Also, the EC50 under setting [1] was 1000 to 10000 nM. Further, the EC50 under setting [2] was in the range of 1000 to 10000 nM.

Turning to `COc1c(C#N)c(N[C@H]2[C@H](C(C)(C)C)[C@@H](C(=O)O)N(C(=O)C3CCCCC3)[C@H]2c2ccccc2)nc2ccccc12` [Example I-55], the “Maximum % activity (with co-corrector)” value was “+++ (≥350)” and the Emax was under 100%. Besides, the EC50 under setting [1] fell in the range of 1000 to 10000 nM. For the same compound, the EC50 under setting [2] lay within 1000 to 10000 nM.

Turning to `CC(C)(C)[C@H]1[C@H](Nc2cccc(C(F)(F)F)c2)[C@H](c2ccccc2)N(C(=O)C2CCCCC2)[C@@H]1C(=O)O` [Example I-56], the “Maximum % activity (with co-corrector)” value is “+++ (≥350)” and the Emax is under 100%. The EC50 under setting [1] was under 1000 nM. Moreover, the EC50 under setting [2] is under 1000 nM.

For the compound `COc1ccc(Cl)cc1CN[C@H]1[C@H](C(C)(C)C)[C@@H](C(=O)O)N(C(=O)C2CCCCC2)[C@H]1c1ccccc1OC` [Example I-57], the “Maximum % activity (with co-corrector)” value is recorded as “+++ (≥350)” and the Emax was in the range of 100 to 200%. The EC50 under setting [1] fell in the range of 1000 to 10000 nM. For the same compound, the EC50 under setting [2] was in the range of 1000 to 10000 nM.

With `COc1ccc(C(C)(C)C)cc1CN[C@H]1[C@H](C(C)(C)C)[C@@H](C(=O)O)N(C(=O)[C@H]2CCC[C@H](OC)C2)[C@H]1c1ccccc1` [Example I-58], the “Maximum % activity (with co-corrector)” value is on record as “+++ (≥350)” and the Emax was over 200%. Besides, the EC50 under setting [1] lay within 1000 to 10000 nM. Besides, under setting [2], the EC50 lay in the range of 1000 to 10000 nM.

Consider `COc1ccc(C(F)(F)F)cc1CN[C@H]1[C@H](C(C)(C)C)[C@@H](C(=O)O)N(C(=O)[C@@H]2CCC[C@@H](OC)C2)[C@H]1c1ccccc1` [Example I-59], for which the “Maximum % activity (with co-corrector)” value is on record as “+++ (≥350)” and the Emax was over 200%. Under setting [1], the EC50 lay in the range of 1000 to 10000 nM. Besides, the EC50 under setting [2] lay within 1000 to 10000 nM.

Take `COc1ccc(C(F)(F)F)cc1CN[C@H]1[C@H](C(C)(C)C)[C@@H](C(=O)O)N(C(=O)[C@H]2CCC[C@H](OC)C2)[C@H]1c1ccccc1` [Example I-60]: the “Maximum % activity (with co-corrector)” value is given as “+++ (≥350)” and the Emax is over 200%. The EC50 under setting [1] was in the range of 1000 to 10000 nM. The EC50 under setting [2] was 1000 to 10000 nM.

As to `COc1ccc(C(C)(C)C)cc1CN[C@H]1[C@H](C(C)(C)OC)[C@@H](C(=O)O)N(C(=O)C2CCCCC2)[C@H]1c1ccccc1` [Example I-61], the “Maximum % activity (with co-corrector)” value is listed as “+++ (≥350)” and the Emax is over 200%. Also, the EC50 under setting [1] fell in the range of 1000 to 10000 nM. Further, under setting [2], the EC50 was under 1000 nM.

As for `COc1cc(C(C)(C)C)ccc1CN[C@H]1[C@H](C(C)(C)OC)[C@@H](C(=O)O)N(C(=O)C2CCCCC2)[C@H]1c1ccccc1` [Example I-62], the “Maximum % activity (with co-corrector)” value is “+++ (≥350)” and the Emax was 100 to 200%. Also, under setting [1], the EC50 was in the range of 1000 to 10000 nM. For the same compound, the EC50 under setting [2] was 1000 to 10000 nM.

As to `COc1ccc(C(F)(F)F)cc1CN[C@H]1[C@H](C(C)(C)OC)[C@@H](C(=O)O)N(C(=O)C2CCCCC2)[C@H]1c1ccccc1` [Example I-63], the “Maximum % activity (with co-corrector)” value is given as “+++ (≥350)” and the Emax is over 200%. In addition, the concentration for a half-maximal effect (EC50) under setting [1] lay in the range of 1000 to 10000 nM. In addition, the EC50 under setting [2] is under 1000 nM.

Regarding `COc1ccc(C(C)(C)C)cc1CN[C@H]1[C@H](C(C)(C)C)[C@@H](C(=O)O)N(C(=O)c2cccnc2)[C@H]1c1ccccc1` [Example I-64], the “Maximum % activity (with co-corrector)” value is “+++ (≥350)” and the Emax was under 100%. Also, the EC50 under setting [1] lay within 1000 to 10000 nM. The EC50 under setting [2] fell in the range of 1000 to 10000 nM.

In the case of `COc1ccc(C(C)(C)C)cc1CN[C@H]1[C@H](C(C)(C)C)[C@@H](C(=O)O)N(C(=O)c2ccccc2)[C@H]1c1ccccc1` [Example I-65], the “Maximum % activity (with co-corrector)” value was “+++ (≥350)” and the Emax fell in the range of 100 to 200%. The EC50 under setting [1] lay within 1000 to 10000 nM. Besides, under setting [2], the EC50 was in the range of 1000 to 10000 nM.

In the case of `COc1ccc(C(C)(C)C)cc1CN[C@H]1[C@H](C(C)(C)C)[C@@H](C(=O)O)N(C(=O)C2CCCS(=O)(=O)C2)[C@H]1c1ccccc1` (some centres unmarked) [Example I-66], the “Maximum % activity (with co-corrector)” value was “+++ (≥350)” and the Emax is over 200%. Further, the EC50 under setting [1] was in the range of 1000 to 10000 nM. In addition, the EC50 under setting [2] lay in the range of 1000 to 10000 nM.

With `CC(C)(C)[C@H]1[C@H](Nc2cc(C(F)(F)F)cc(C3CCC3)n2)[C@H](c2ccccc2)N(C(=O)C2CCCCC2)[C@@H]1C(=O)O` [Example I-67], the “Maximum % activity (with co-corrector)” value was “+++ (≥350)” and the Emax was under 100%. The EC50 under setting [1] lay in the range of 1000 to 10000 nM. Further, the EC50 under setting [2] was 1000 to 10000 nM.

Turning to `COc1ccc(C2CCC2)cc1CN[C@H]1[C@H](C(C)(C)C)[C@@H](C(=O)O)N(C(=O)C2CCCCC2)[C@H]1c1ccccc1` [Example I-68], the “Maximum % activity (with co-corrector)” value is on record as “+++ (≥350)” and the Emax is over 200%. Moreover, under setting [1], the EC50 is under 1000 nM. In addition, the 50% effective concentration (EC50) under setting [2] was under 1000 nM.

In the case of `COc1ncc(Cc2ccccc2)cc1CN[C@H]1[C@H](C(C)(C)C)[C@@H](C(=O)O)N(C(=O)C2CCCCC2)[C@H]1c1ccccc1` [Example I-69], the “Maximum % activity (with co-corrector)” value is on record as “+++ (≥350)” and the Emax is 100 to 200%. The EC50 under setting [1] was under 1000 nM. Moreover, the EC50 under setting [2] is under 1000 nM.

In the case of `CCC(C)c1cnc(OC)c(CN[C@H]2[C@H](C(C)(C)C)[C@@H](C(=O)O)N(C(=O)C3CCCCC3)[C@H]2c2ccccc2)c1` (some centres unmarked) [Example I-70], the “Maximum % activity (with co-corrector)” value is listed as “+++ (≥350)” and the Emax is over 200%. For the same compound, the concentration giving a half-maximal response (EC50) under setting [1] fell in the range of 1000 to 10000 nM. Also, the EC50 under setting [2] was under 1000 nM.

For `COc1ncc(CC2CCCCC2)cc1CN[C@H]1[C@H](C(C)(C)C)[C@@H](C(=O)O)N(C(=O)C2CCCCC2)[C@H]1c1ccccc1` [Example I-71], the “Maximum % activity (with co-corrector)” value is “+++ (≥350)” and the Emax fell in the range of 100 to 200%. Under setting [1], the EC50 was under 1000 nM. For the same compound, the EC50 under setting [2] is under 1000 nM.

Consider `COc1ncc(C2CCCCC2)cc1CN[C@H]1[C@H](C(C)(C)C)[C@@H](C(=O)O)N(C(=O)C2CCCCC2)[C@H]1c1ccccc1` [Example I-72], for which the “Maximum % activity (with co-corrector)” value is given as “+++ (≥350)” and the Emax was over 200%. In addition, under setting [1], the EC50 was under 1000 nM. Besides, the EC50 under setting [2] was under 1000 nM.

As for `COc1ncc(C2CCCC2)cc1CN[C@H]1[C@H](C(C)(C)C)[C@@H](C(=O)O)N(C(=O)C2CCCCC2)[C@H]1c1ccccc1` [Example I-73], the “Maximum % activity (with co-corrector)” value is given as “+++ (≥350)” and the Emax is over 200%. The EC50 under setting [1] is under 1000 nM. The EC50 under setting [2] was under 1000 nM.

`CCC(CC)Cc1cnc(OC)c(CN[C@H]2[C@H](C(C)(C)C)[C@@H](C(=O)O)N(C(=O)C3CCCCC3)[C@H]2c2ccccc2)c1` [Example I-74]: the “Maximum % activity (with co-corrector)” value is “+++ (≥350)” and the Emax was over 200%. Also, the concentration for a half-maximal effect (EC50) under setting [1] is under 1000 nM. Moreover, the EC50 under setting [2] was under 1000 nM.

On to `COc1ncc(C(C)c2ccccc2)cc1CN[C@H]1[C@H](C(C)(C)C)[C@@H](C(=O)O)N(C(=O)C2CCCCC2)[C@H]1c1ccccc1` (some centres unmarked) [Example I-75], for which the “Maximum % activity (with co-corrector)” value is listed as “+++ (≥350)” and the Emax was in the range of 100 to 200%. Moreover, the EC50 under setting [1] is under 1000 nM. Further, under setting [2], the EC50 is under 1000 nM.

The values are drawn from patent US20180099931A1 (AbbVie S.à.r.l., priority 2016, published 2018).
